Measured values reported in patent US8318938B2, “Trans-fused chromenoisoquinolines synthesis and methods for use” (Purdue Research Foundation, priority 2006, dated 2012).
Several values for one entry are separate records, joined by “and”; a condition that tells them apart may be missing. Identical values can stand only once. Counter-ions that a name gives are not always drawn.

Tests used:
[1] = target: endogenous human D1-like dopamine receptor in MCF7 cells (Homo sapiens, UniProt P21728); details: for Intrinsic Activity (% dopamine), Endogenous hD1: normalized to maximal cyclic AMP accumulation with dopamine (FIG. 3A)
Method: The data presented in FIG. 2B are the mean±SEM of three independent experiments assayed in duplicate.
The data presented in FIGS. 3B-C are the mean±SEM of three independent experiments assayed in duplicate.
(§1) Cell Culture. […] Cells were grown at 37° C. in a humidified incubator with 6% CO2.
(§2) Cyclic AMP accumulation assay. Assays were performed on confluent monolayers of cells in 48-well plates. […] Cyclic AMP stimulation assays were performed on HEK D1-CRELuc or MCF7 cells by incubating the cells with ligands for 15 minutes at 37° C. Cyclic AMP inhibition assays were performed on HEK-α2C cells in the presence 30 μM forskolin to stimulate cyclic AMP formation. All assays were performed in the presence of 500 μM isobutylmethylxanthine (IBMX) and terminated with ice cold 3% trichloroacetic acid.
(§3) Cyclic AMP binding assay. […] Briefly, cellular lysate (15-20 μL) was added to cyclic AMP binding buffer (100 mM Tris-HCl, pH 7.4, 100 mM NaCl, 5 mM EDTA) in assay tubes containing 1 nM final concentration [^3H]cyclic AMP and bovine adrenal gland cyclic AMP binding protein (100-150 μg in 500 μl binding buffer). The binding assay was incubated on ice at 4° C. for 2-4 hours and terminated by harvesting with ice cold wash buffer (10 mM Tris, 0.9% NaCl) using a 96-well Packard Filtermate cell harvester and Millipore Multiscreen Harvest Plates (Millipore, Billerica, Mass., USA). Packard Microscint O (40 μL) was added to each well after drying. Radioactivity was counted using a Packard Topcount scintillation counter. Standard curves ranging from 0.01 to 300 pmol of cyclic AMP were used to determine the concentration of cyclic AMP in each sample. Data analysis was performed on GraphPad Prism software.

α2C adrenergic receptor [2] = target: T1, α2C adrenergic receptor (Homo sapiens, UniProt P18825); assay: NIMH-sponsored Psychoactive Drug Screening Program affinity screen; type: binding; details: NIMH PDSP screen
T1 construct: expressed in transfected cells; host or cells: HEK293 (HEK-α2C)
T1 sequence (P18825 1-462): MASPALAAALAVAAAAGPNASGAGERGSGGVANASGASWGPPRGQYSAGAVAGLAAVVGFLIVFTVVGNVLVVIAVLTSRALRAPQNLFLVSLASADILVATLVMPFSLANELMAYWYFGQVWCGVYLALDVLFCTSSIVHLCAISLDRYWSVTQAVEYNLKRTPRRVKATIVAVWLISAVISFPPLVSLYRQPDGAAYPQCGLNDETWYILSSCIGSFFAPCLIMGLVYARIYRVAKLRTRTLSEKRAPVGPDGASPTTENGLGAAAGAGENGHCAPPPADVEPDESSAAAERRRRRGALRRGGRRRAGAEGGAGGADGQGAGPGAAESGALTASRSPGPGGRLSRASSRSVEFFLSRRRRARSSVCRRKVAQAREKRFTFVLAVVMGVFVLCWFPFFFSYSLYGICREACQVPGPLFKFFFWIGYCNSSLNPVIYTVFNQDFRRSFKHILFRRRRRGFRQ

[3] = target: human dopamine D1 receptor (Homo sapiens, UniProt P21728); assay: Cyclic AMP accumulation in HEK cells stably expressing the human dopamine D1 receptor (cloned hD1); type: cell-based; details: normalized to maximal cyclic AMP accumulation with dopamine
Method: Cyclic AMP accumulation assay. Assays were performed on confluent monolayers of cells in 48-well plates. […] Cyclic AMP stimulation assays were performed on HEK D1-CRELuc or MCF7 cells by incubating the cells with ligands for 15 minutes at 37° C. […] All assays were performed in the presence of 500 μM isobutylmethylxanthine (IBMX) and terminated with ice cold 3% trichloroacetic acid.

[4] = target: native D1-like dopamine receptors in porcine striatal tissue (Sus scrofa, UniProt P50130); assay: Porcine striatal cyclase assay (cyclic AMP stimulation in striatal homogenate); type: biochemical; details: read-out: intrinsic activity in porcine striatal tissue
Method: as §3
The homogenate was centrifuged at 1,000×g for 10 min at 4° C.

α2C adrenergic receptor [5] = target: T1, α2C adrenergic receptor; assay: Inhibition of forskolin-stimulated cyclic AMP accumulation in HEK293 cells stably expressing the α2C receptor; type: cell-based; details: for EC50 / Intrinsic Activity (% forskolin), α2C Adrenergic: HEK-α2C cells; for EC50: 30 μM forskolin, 15 min at 37° C.; for Intrinsic Activity (% forskolin), α2C Adrenergic: inhibition of cyclic AMP stimulated by 30 μM forskolin
Text: The data presented have been normalized to the maximal cyclic AMP accumulation observed in the presence of forskolin alone and are the mean±SEM of three independent experiments assayed in duplicate.
Briefly, HEK D1-CreLuc cells were created by a two step process. HEK293 cells were co-transfected with the pBabe Puro and pGL-CreLuc vectors. Puromycin resistant clones, which expressed the functional cyclic AMP response element-linked luciferase reporter gene, were selected. Next, HEK-CreLuc cells were stably transfected with pcDNA3.1 (+)-D1. Clones were assayed for D1 receptor function by measuring cyclic AMP accumulation and luciferase activity. HEK-α2C cells were constructed by stable transfection with pcDNA.3(+)-α2C. G418 resistant clones were selected and assayed for α2C function by measuring inhibition of forskolin-stimulated cyclic AMP accumulation.
as §1, §2, §3

endogenous human D1-like dopamine receptor in MCF7 cells, sequence (P21728 whole entry): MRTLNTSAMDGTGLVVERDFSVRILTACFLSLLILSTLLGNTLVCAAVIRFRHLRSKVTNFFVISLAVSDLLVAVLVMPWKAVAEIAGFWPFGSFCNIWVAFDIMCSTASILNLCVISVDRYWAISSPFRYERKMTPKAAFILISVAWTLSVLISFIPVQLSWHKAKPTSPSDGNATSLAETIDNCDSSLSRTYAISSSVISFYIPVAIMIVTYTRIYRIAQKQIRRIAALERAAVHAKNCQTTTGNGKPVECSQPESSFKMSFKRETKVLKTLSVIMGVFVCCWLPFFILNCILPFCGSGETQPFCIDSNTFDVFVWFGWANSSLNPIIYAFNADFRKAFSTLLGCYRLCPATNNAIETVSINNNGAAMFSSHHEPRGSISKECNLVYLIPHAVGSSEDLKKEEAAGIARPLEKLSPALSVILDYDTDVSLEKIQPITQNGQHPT
human dopamine D1 receptor, sequence (P21728 whole entry): as above
native D1-like dopamine receptors in porcine striatal tissue, sequence (P50130 whole entry): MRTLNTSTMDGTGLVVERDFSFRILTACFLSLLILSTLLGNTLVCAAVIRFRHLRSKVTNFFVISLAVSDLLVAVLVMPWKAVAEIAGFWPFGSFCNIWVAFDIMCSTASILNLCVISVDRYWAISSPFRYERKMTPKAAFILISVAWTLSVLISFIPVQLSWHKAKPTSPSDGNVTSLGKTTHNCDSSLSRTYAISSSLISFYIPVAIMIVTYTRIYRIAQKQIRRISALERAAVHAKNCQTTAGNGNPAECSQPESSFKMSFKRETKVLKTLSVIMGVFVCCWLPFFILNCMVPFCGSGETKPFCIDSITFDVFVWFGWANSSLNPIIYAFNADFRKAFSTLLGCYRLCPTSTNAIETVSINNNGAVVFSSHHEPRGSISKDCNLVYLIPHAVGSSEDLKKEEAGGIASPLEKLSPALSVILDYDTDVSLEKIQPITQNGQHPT

Cl.c1ccc2c(c1)CN[C@@H]1COc3cc4c(cc3[C@@H]21)OCO4
melting point: 163 °C

Br.Cc1ccc2c(c1)C1c3cc(O)c(O)cc3OCC1NC2 (stereo not drawn)
melting point: 195 to 200 °C (dec.)

Cl.c1ccc2c(c1)CN[C@H]1COc3cc4c(cc3[C@H]21)OCO4
melting point: 163 °C

Cl.Oc1cc2c(cc1O)C1c3ccccc3CNC1CO2 (racemic) [(±)-ODHX, 2,3-Dihydroxy-6a,7,8,12b-tetrahydro-6H-chromeno[3,4-c]isoquinoline hydrochloride]
Intrinsic Activity (% dopamine), Endogenous hD1 [1]: 80 ± 3 % dopamine | Ki (α2C adrenergic receptor [2]): ~2 nM

O=C1N[C@@H]2COc3cc4c(cc3[C@H]2c2ccsc21)OCO4 (racemic) [Example 23, (±)-Trans-9,10-methylenedioxy-5,5a,6,11b-tetrahydro-4H-chromeno[3,4-b]thieno[3,2-d]pyridin-4-one]
melting point: > 250 °C

Oc1cc2c(cc1O)[C@H]1c3ccccc3CN[C@@H]1CO2 [(+)-ODHX, (+)-(6aS,12bR)-2,3-Dihydroxy-6a,7,8,12b-tetrahydro-6H-chromeno[3,4-c]isoquinoline hydrochloride]
Intrinsic Activity (% dopamine), Cloned hD1 ([3]; hydrochloride): 109±6 % dopamine | Emax [4]: 115 ± 15% | intrinsic activity as share of the intrinsic activity of (−)-ODHX at α2C receptor (α2C adrenergic receptor [5]): ca. 50% | EC50 (α2C adrenergic receptor [5]): 151 ± 25 nM | Intrinsic Activity (% forskolin), α2C Adrenergic (α2C adrenergic receptor [5]; hydrochloride): 34±6 % forskolin and 34 ± 7 % forskolin | Intrinsic Activity (% dopamine), Endogenous hD1 [1]: 131 ± 13 % dopamine

Cl.Oc1cc2c(cc1O)[C@@H]1c3ccccc3CN[C@H]1CO2 [(−)-ODHX, (−)-(6aR,12bS)-2,3-Dihydroxy-6a,7,8,12b-tetrahydro-6H-chromeno[3,4-c]isoquinoline hydrochloride]
Intrinsic Activity (% dopamine), Cloned hD1 [3]: 85 ± 6 % dopamine | EC50 (α2C adrenergic receptor [5]): 4.4 nM | Intrinsic Activity (% forskolin), α2C Adrenergic (α2C adrenergic receptor [5]): 69 ± 2 % forskolin | effect alone on cyclic AMP levels ([1]; 10 μM alone): significant increase in cyclic AMP levels | antagonism of dopamine- and (+)-ODHX-stimulated cyclic AMP accumulation ([1]; dose-response curves in presence of 10 μM (−)-ODHX (FIGS. 3B-C)): reduced the intrinsic activity and potency of both dopamine and (+)-ODHX

Clc1cccc(Cl)c1N=C1NCCN1 [Clonidine, reference compound]
Intrinsic Activity (% forskolin), α2C Adrenergic (α2C adrenergic receptor [5]): 61 ± 5 % forskolin

C1=NC2COc3cc4c(cc3C2c2ccccc21)OCO4 (stereo not drawn) [Example 5, 2,3-Methylenedioxy-6a,12b-dihydro-6H-chromeno[3,4-c]isoquinoline]
melting point: 191 °C

c1ccc2c(c1)CNC1COc3cc4c(cc3C21)OCO4 (stereo not drawn) [Example 6, 2,3-Methylenedioxy-6a,7,8,12b-tetrahydro-6H-chromeno[3,4-c]isoquinoline]
melting point: 188 °C

Cc1ccc2c(c1)C1c3cc4c(cc3OCC1NC2=O)OCO4 (stereo not drawn) [Example 16, 2,3-methylenedioxy-11-methyl-6a,7-dihydro-6H-12bH-chromeno[3,4-c]isoquinolin-8-one]
melting point: > 250 °C
